Patent US20030194409A1, “Conjugate heat shock protein-binding peptides” (priority 2002, published 2003)
Like-named read-outs stand apart in the source and are kept apart here.

Tests used:
[1] = biological target: T1, gp96 in the presence of herbimycin A (Mus musculus, UniProt P08113); conditions: expected frequency for comparison with % actual, cited from earlier work
T1 construct: The mouse cDNA encoding mature gp96 (i.e., wherein the endoplasmic reticulum signal peptide has been removed) was incorporated into the pET 11 a expression vector; made in house; host or cells: Escherichia coli BL21 (pET11gp96)

[2] = biological target: T1, gp96 in the presence of herbimycin A; test: Affinity panning of phage display heptapeptide library on gp96 in the presence of herbimycin A; format: binding; conditions: for % actual (amino acid frequency in sequenced gp96-binding phage-expressed heptapeptides): TWEEN 20
Procedure: Preparation of a gp96 expression vector. The mouse cDNA encoding mature gp96 (i.e., wherein the endoplasmic reticulum signal peptide has been removed) was incorporated into the pET 11 a expression vector (Novagen) as follows. Gp96 cDNA insert was prepared by polymerase chain reaction (PCR) of a pRc/CMV clone containing the cDNA using the following oligonucleotide primers: […]
Expression of gp96. pET11gp96 was transformed into BL21 Escherichia coli cells, and plated on LB plates containing ampicillin (50 μg/ml). One of the resulting colonies was used to inoculate a 20 ml overnight culture of 2×TY medium containing ampicillin (150 μg/ml). The following day, the resulting culture was spun down and the harvested bacteria were resuspended in 1 ml of fresh medium. Two one liter cultures were then each inoculated with 0.5 ml of the harvested cells and allowed to grow at 37° C. until the optical density, measured at 600 nm, was 0.5. Then, IPTG was added to a concentration of 1 mM and the cells were cultured for another 3 hours before being harvested by centrifugation. The resulting cell pellet was resuspended in 20 ml of 50 mM HEPES pH 7.5, 50 mM KCl, 5 mM MgAcetate, 20% sucrose and 1 mM PMSF. Cell extracts were prepared by pressure shearing in a French Press. The lysates were then spun at 100,000×g for 1.5 hours and the supernatant, which constituted crude gp96 extract, was collected.
Purification of gp96. The following steps were all performed at 4° C. A 12.5 cm×3.2 cm column of DE52 resin (Whatman) was equilibrated in a solution of 50 mM MOPS pH 7.4, 10 mM NaCl, 5 mM MgAcetate (hereafter, “Buffer A”). The crude gp96 extract was diluted 2-fold and immediately loaded onto the column at a flow rate of 2 ml/min. Elution from the column was achieved using a gradient of a solution of 50 mM MOPS pH 7.4, 1M NaCl, 5 mM MgAcetate (hereafter, “Buffer B”) from 0% to 100% Buffer B over 1000 ml. The elution profile was examined by subjecting fractions collected from the column to SDS-PAGE analysis. Fractions containing gp96 were pooled and diluted 2-fold with cold water, and were immediately run onto the next column (see below).
A 10 cm×1 cm column of hydroxyapatite (BioRad) was washed with 100 ml 0.5 M K2HPO4, 50 mM KCl pH 7.4 and then equilibrated with 10 mM K2HPO4, 50 mM KCl pH 7.4. The pooled diluted fractions from the DE52 column were loaded onto this column at a flow rate of 1 ml/min. The gp96 protein was eluted in a gradient of 10-500 mM K2HPO4 over 800 ml. Fractions containing gp96 were pooled and loaded onto the phenylsepharose column described below.
A 9 cm×3 cm column of phenylsepharose (Pharmacia) was equilibrated with 500 mM NaCl, 50 mM MOPS pH 7.4. The pooled fractions containing gp96 from the hydroxyapatite were loaded onto this column at 1 ml/min and the gp96 was eluted in a gradient of 500-0 mM NaCl over 800 ml. The gp96 containing fractions collected from the column were identified by SDS-PAGE, pooled, and concentrated.
The gp96 was then loaded onto a Hi Load 26/60 Superdex-200 column (Pharmacia) equilibrated with 100 mM NaCl, 5 mM MgAcetate, 50 mM MOPS pH 7.5, 3 ml fractions were collected, and the fractions containing the most pure gp96 (as identified by SDS PAGE using a 12 percent reducing gel) and pooled. To the pooled fractions, glycerol was added to 10% (v/v), and then the fractions were concentrated to 21 mg/ml on a Centricon-50 concentrator (Amicon), frozen using liquid nitrogen, and stored at −80° C.
Affinity panning. The Ph.D. Phage Display Library Kit (New England BioLabs, Beverly, Mass.), was used for affinity panning. For each panning experiment, a well of a 96-well polystyrene microtiter plate (each well having a 6 mm diameter) was filled with 150 μl of a solution of 200 μg/ml of gp96 in 0.1 M NaHCO3 pH 8.3. If herbimycin A was to be included in the experiment, 1 μl of 10 mg/ml herbimycin A (GIBCO) in DMSO was added to each well, corresponding to a 50-fold molar excess relative to gp96. […]

[3] = Table XII, gp96 and herbimycin A, binding buffer without calcium: 20 mM HEPES pH 7.5, 100 mM KCl, 1 mM DTT, 1 mM MgAcetate, 42 phage-expressed peptides sequenced
[4] = Table XIV, gp96 in the presence of herbimycin A, binding buffer with ATP: 20 mM HEPES pH 7.5, 100 mM KCl, 1 mM CaCl2, 1 mM MgAcetate, 1 mM ATP
[5] = Table XVI, binding buffer with AMP-PNP instead of ATP: 20 mM HEPES pH 7.5, 100 mM KCl, 1 mM CaCl2, 1 mM MgAcetate, 1 mM AMP-PNP

T1 sequence (P08113 22-802): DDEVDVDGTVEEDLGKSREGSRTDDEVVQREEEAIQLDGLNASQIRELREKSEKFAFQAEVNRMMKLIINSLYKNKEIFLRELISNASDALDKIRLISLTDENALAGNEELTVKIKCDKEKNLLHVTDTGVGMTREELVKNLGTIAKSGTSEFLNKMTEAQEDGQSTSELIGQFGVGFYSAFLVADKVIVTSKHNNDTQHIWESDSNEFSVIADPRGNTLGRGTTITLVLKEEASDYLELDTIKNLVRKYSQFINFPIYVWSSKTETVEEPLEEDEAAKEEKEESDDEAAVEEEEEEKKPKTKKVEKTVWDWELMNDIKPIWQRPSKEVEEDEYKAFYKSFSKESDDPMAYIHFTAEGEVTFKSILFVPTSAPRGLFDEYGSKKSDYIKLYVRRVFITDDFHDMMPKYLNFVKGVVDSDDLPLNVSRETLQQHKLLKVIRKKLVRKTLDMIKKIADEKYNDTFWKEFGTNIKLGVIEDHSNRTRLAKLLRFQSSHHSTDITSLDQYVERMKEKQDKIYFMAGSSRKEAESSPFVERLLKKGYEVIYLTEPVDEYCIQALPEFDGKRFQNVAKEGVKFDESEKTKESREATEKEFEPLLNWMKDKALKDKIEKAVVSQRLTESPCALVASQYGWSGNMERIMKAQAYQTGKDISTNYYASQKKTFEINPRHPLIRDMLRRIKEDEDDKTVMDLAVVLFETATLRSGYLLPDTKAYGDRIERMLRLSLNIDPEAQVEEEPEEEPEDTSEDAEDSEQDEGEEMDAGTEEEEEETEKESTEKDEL

% actual (amino acid frequency in sequenced gp96-binding phage-expressed heptapeptides) [2, 3] [%] | % actual (amino acid frequency in sequenced gp96-binding phage-expressed heptapeptides) [2, 4] [%] | % actual (amino acid frequency in sequenced gp96-binding phage-expressed heptapeptides) [2, 5] [%] | binding of phage-expressed peptides to gp96 ([2]; 20 mM HEPES pH 7.5, 100 mM KCl, 25 mM CaCl2, 5 mM MgAcetate, TWEEN-20, herbimycin A present) | Compound | % expected (amino acid frequency) ([1]; Table XII) [%] | % expected (amino acid frequency) ([1]; Table XIV) [%] | % expected (amino acid frequency) ([1]; Table XVI) [%]
3.06 | 5.3 | 5.7 |  | NC(=O)C[C@H](N)C(=O)O [Asn] | 4.1 | 4.1 | 4.1
2.04 | 0 | 1.4 |  | N[C@@H](CC(=O)O)C(=O)O [Asp] | 2.1 | 2.1 | 2.1
0 | 0 | 0 |  | N[C@@H](CS)C(=O)O [Cys] | 0.8 | 0.8 | 0.8
2.0 | 1.78 | 5.7 |  | NC(=O)CC[C@H](N)C(=O)O [Gln] | 6.4 | 6.4 | 6.4
2.0 | 0 | 0 |  | N[C@@H](CCC(=O)O)C(=O)O [Glu] | 1.2 | 1.2 | 1.2
3.74 | 1.78 | 1.4 |  | NCC(=O)O [Gly] | 3.7 | 3.7 | 3.7
5.44 | 10.7 | 12.8 |  | N[C@@H](Cc1c[nH]cn1)C(=O)O [His] | 4.3 | 4.3 | 4.3
12.92 | 10.7 | 5.7 |  | CC(C)C[C@H](N)C(=O)O [Leu] | 11.8 | 11.8 | 11.8
3.74 | 0 | 2.85 |  | NCCCC[C@H](N)C(=O)O [Lys] | 1.7 | 1.7 | 1.7
2.0 | 0 | 2.85 |  | CSCC[C@H](N)C(=O)O [Met] | 3.3 | 3.3 | 3.3
2.38 | 0 | 2.85 |  | N[C@@H](Cc1ccccc1)C(=O)O [Phe] | 2.9 | 2.9 | 2.9
10.88 | 14.2 | 12.8 |  | O=C(O)[C@@H]1CCCN1 [Pro] | 12 | 12 | 12
10.88 | 16.0 | 4.28 |  | N[C@@H](CO)C(=O)O [Ser] | 11.4 | 11.4 | 11.4
13.95 | 8.9 | 10 |  | C[C@@H](O)[C@H](N)C(=O)O [Thr] | 9.3 | 9.3 | 9.3
1.36 | 3.57 | 2.85 |  | N[C@@H](Cc1c[nH]c2ccccc12)C(=O)O [Trp] | 1 | 1 | 1
 |  |  | appeared to be favored | Phe-His-Trp-Trp-Trp (FHWWW; printed: Phe-His-Trp-Trp-Trp) |  |  | 

Compound | % actual (amino acid frequency in sequenced gp96-binding phage-expressed heptapeptides) [2, 3] [%] | % actual (amino acid frequency in sequenced gp96-binding phage-expressed heptapeptides) [2, 4] [%] | % actual (amino acid frequency in sequenced gp96-binding phage-expressed heptapeptides) [2, 5] [%] | binding of phage-expressed peptides to gp96 ([2]; 20 mM HEPES pH 7.5, 100 mM KCl, 25 mM CaCl2, 5 mM MgAcetate, TWEEN-20, herbimycin A present) | % expected (amino acid frequency) ([1]; Table XII) [%] | % expected (amino acid frequency) ([1]; Table XIV) [%] | % expected (amino acid frequency) ([1]; Table XVI) [%]
C[C@H](N)C(=O)O [Ala] | 10.2 | 3.57 | 8.5 |  | 7.2 | 7.2 | 7.2
N=C(N)NCCC[C@H](N)C(=O)O [Arg] | 2.72 | 5.35 | 5.7 |  | 3.9 | 3.9 | 3.9
